Source: US8030320B2, “Derivatives of 1-OXO-1,2-dihydroisoquinoline-5-carboxamides and of 4-OXO-3,4-dihydroquinazoline-8-carboxamides, preparation thereof and application thereof in therapeutics” (Sanofi-Aventis, priority 2007, dated 2011)
Counter-ions that a name gives are not always drawn.

Key:
[1] = biological target: T1, purified recombinant form of human BACE1 aspartyl protease (Homo sapiens, UniProt P56817); assay: BACE-1 FRET assay, in vitro inhibition of β-secretase activity; assay type: biochemical; settings: peptide substrate 0.25 μM, enzyme 10 nM, sodium acetate buffer pH 4.5, 60 min, ambient temperature; read-out: IC50 (concentration of product giving 50% inhibition of the enzyme activity)
T1 construct: hexahistidine (His6) (C); made in house; host or cells: Drosophila cells
T1 sequence (P56817 46-501): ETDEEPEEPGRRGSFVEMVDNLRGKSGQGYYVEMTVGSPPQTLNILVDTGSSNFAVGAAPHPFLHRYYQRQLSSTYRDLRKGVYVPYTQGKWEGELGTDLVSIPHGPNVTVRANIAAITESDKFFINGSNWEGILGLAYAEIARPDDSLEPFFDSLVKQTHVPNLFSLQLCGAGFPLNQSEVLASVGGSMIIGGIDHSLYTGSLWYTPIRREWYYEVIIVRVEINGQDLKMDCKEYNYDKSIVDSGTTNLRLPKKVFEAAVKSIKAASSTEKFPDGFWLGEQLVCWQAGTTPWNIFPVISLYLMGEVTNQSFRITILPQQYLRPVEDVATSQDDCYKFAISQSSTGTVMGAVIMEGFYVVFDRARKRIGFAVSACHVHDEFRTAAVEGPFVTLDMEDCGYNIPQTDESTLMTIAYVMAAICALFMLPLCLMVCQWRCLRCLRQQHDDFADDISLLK
Protocol: The tests consisted in measuring the in vitro inhibition of the β-secretase activity by the compounds of the invention, via the use of the “BACE-1 FRET Assay Kit, Red” available from PanVera-Invitrogen Inc. The β-secretase activity measured corresponds to that of a purified recombinant form of human BACE1 aspartyl protease (the latter comprising a hexahistidine tag at the C-terminal position) produced by expression in Drosophila cells. The purified enzyme is conditioned in TRIS buffer (18 mM) at pH 7.5 containing NaCl (0.45M), MnCl2 (0.9 mM), CaCl2 (0.9 mM), α-D-methylmannoside and 10% glycerol, and stored at −80° C. until use. The BACE1 activity is measured from the cleavage of a fluorogenic peptide substrate sold by Invitrogen (PanVera BACE1/β-secretase FRET assay kit, Red; reference P2985), based on the principle of fluorescence resonance energy transfer (FRET) and corresponding to the Rh-EVNLDAEFK-Quencher sequence; the cleavage of the peptide is measured from the increase of the fluorescent signal emitted by the rhodamine derivative (Rh). The test is carried out in a 96-well microplate in order to determine the inhibition of the enzyme activity by the products of the invention. […] When the incubation is finished, the fluorescence is measured in a spectrofluorimeter, at the excitation wavelength of about 543 nm and emission wavelength of about 585 nm. […]

melting point | IC50 [1] | SMILES
152 °C | 830 nM | CCCC(CCC)n1cnc2c(C(=O)N[C@@H](Cc3ccccc3)[C@H](O)CNCc3cccc(C(F)(F)F)c3)cccc2c1=O.Cl [Compound 3, N-[(1S,2R)-1-benzyl-2-hydroxy-3-{[3-(trifluoromethyl)benzyl]-amino}propyl]-4-oxo-3-(1-propylbutyl)-3,4-dihydroquinazoline-8-carboxamide hydrochloride (1:1)]
 | 2600 nM | CCCC(CCC)n1ccc2c(C(=O)N[C@@H](Cc3ccccc3)[C@H](O)CNCc3cccc(C(F)(F)F)c3)cccc2c1=O [Compound 1, N-[(1S,2R)-1-benzyl-2-hydroxy-3-{[3-(trifluoromethyl)benzyl]-amino}propyl]-1-oxo-2-(1-propylbutyl)-1,2-dihydroisoquinoline-5-carboxamide hydrochloride (1:1)]
